Measurements reported in patent US20090232867A1, “Modified conductive surfaces having active substances attached thereto” (Elutex Ltd., priority 2004, published 2009).

Tests used:
[1] = Paclitaxel release from pyrrole-functionalized PLA nanoparticles in 0.1N phosphate buffer; format: physicochemical; conditions: immersed in 0.1N phosphate buffer solution
Procedure: In a representative example, nanoparticles were prepared by dispersing a chloroform solution of a pyrrole polymer prepared as described hereinabove (0.1 gram), polylactic acid (0.4 grams, Mn=3,000) and paclitaxel (0.15 gram) in de-ionized water at room temperature with constant stirring.

[2] = Paclitaxel release from coated stent or plate into phosphate buffer pH 7.4 with 0.3% SDS, HPLC; format: physicochemical; conditions: stents/plates coated with polypyrrole derivatives
Procedure: The release characteristic of the stent or plate was determined by placing drug-loaded device into buffer phosphate solution, pH 7.4, which contained 0.3% SDS, to increase the solubility of paclitaxel, and the daily release was determined by HPLC.

## CC(=O)O[C@H]1C(=O)[C@@]2(C)[C@H]([C@H](OC(=O)c3ccccc3)[C@]3(O)C[C@H](OC(=O)[C@H](O)[C@@H](NC(=O)c4ccccc4)c4ccccc4)C(C)=C1C3(C)C)[C@]1(OC(C)=O)CO[C@@H]1C[C@@H]2O [paclitaxel]
[1]
  release of paclitaxel from nanoparticles: released constantly from these particles during two weeks
[2]; after 3 days
  absorbed drug released into the buffer medium: about 50%
[2]
  duration of slow release of the remaining drug: over 3 weeks
